{"source": "patent EP0060954A1", "about": "“Derivatives of fluorophenacyl amines and their therapeutic use” (LABORATOIRE L. LAFON Société anonyme dite:, priority 1981, dated 1982)", "key": {"souris mâles": {"test_system": "souris mâles", "assay": "Intergroup aggressiveness test (number of fights after removal of the partition)", "format": "in vivo", "details": "mouse; dose not given", "text": "Des essais comparatifs ont été entrepris pour mettre en évidence quels sont les effets chez l'animal qui permettent de distinguer les produits selon l'invention de leurs homologues fluorés connus. Parmi ces essais, on a résumé ceux concernant les propriétés antiagressives. Plus précisément, on a évalué la diminution de l'agressivité intergroupes selon la technique suivante : a.près avoir séjourné pendant 3 semaines de part et d'autre d'une cloison opaque séparant leur cage par le milieu, des groupes de trois souris mâles de 20 g chacune environ reçoivent, par voie intrapéritonéale, les produits à tester en solution dans de l'eau distillée, les animaux témoins ne recevant que de l'eau distillée par voie intrapéritonéale. Une demi-heure plus tard, les deux groupes d'une même cage sont réunis par retrait de la cloison opaque et on note le nombre de combats qui surviennent en 10 min. On a utilisé trois cages pour chaque produit à tester et six cages pour le lot témoin ne recevant pas les produits à tester.\nLes résultats du tableau I ci-après donnent la diminution de l'agressivité intergroupes par rapport au lot témoin, tous les produits à tester étant administrés à la dose de 8 mg/kg par voie intrapéritonéale. […]"}, "souris [1]": {"test_system": "souris", "assay": "Toxicity: maximal non-lethal dose DL-0, intraperitoneal", "format": "in vivo", "details": "mouse, i.p.", "description": "La dose maximale non mortelle, DL-0, est supérieure à 128 mg/kg et inférieure à 256 mg/kg, chez la souris, par voie I.P. 2°) - Action sur le SNC\n(§1) Le CRL 40827, en solution dans de l'eau distillée, a été administré par voie intrapéritonéale sous un volume de 20 ml/kg chez la souris mâle et un volume de 5 ml/kg chez le rat mâle. 1°) - Toxicité\nLa dose maximale non mortelle, DL-0, est supérieure à 64 mg/kg et inférieure à 128 mg/kg chez la souris mâle.\nLe CRL 40854, en solution dans de l'eau distillée, a été administré par voie intrapéritonéale sous un volume de 20 ml/kg chez la souris màle et de 5 ml/kg chez le rat màle.\nLa dose maximale non mortelle DL-0 est supérieure à 128 mg/kg et inférieure à 256 mg/kg chez la souris."}, "rat": {"test_system": "rat", "assay": "Interaction with apomorphine, rat", "format": "in vivo", "details": "i.p. 30 min before apomorphine 0,5 mg/kg s.c.", "description": "as §1\nLe CRL 40 827 est administré à des lots de 6 rats 30 min avant l'injection sous-cutanée de 0,5 mg/kg d'apomorphine.\n(§2) En procédant selon les modalités opératoires données ci-dessus pour le CRL 40827, on observe ce qui suit."}, "rats": {"test_system": "rats", "assay": "Interaction with amphetamine (stereotypies)", "format": "in vivo, rat", "details": "rat", "description": "L'amphétamine (2 mg/kg) est injectée par voie intrapéritonéale à des lots de 6 rats, 30 min après l'administration de CRL 40827. […] Interaction avec la réserpine\nas §2"}, "souris [2]": {"test_system": "souris", "assay": "Interaction with reserpine (hypothermia, ptosis)", "format": "in vivo", "details": "mouse", "description": "Quatre heures après l'injection intrapéritonéale de 2,5 mg/kg de réserpine, des lots de 6 souris reçoivent le CRL 40827.\nas §2"}, "souris [3]": {"test_system": "souris", "assay": "Interaction with oxotremorine", "format": "in vivo", "details": "mouse", "description": "Le CRL 40827 est administré à des lots de 6 souris 30 min avant l'injection intrapéritonéale de 0,5 mg/kg d'oxotrémo- rine. On observe que, dès la dose de 0,5 mg/kg, le CRL 40827 antagonise l'action hypothermisante de l'oxotrémorine; cet effet est très net à 32 mg/kg.\nas §2"}, "souris [4]": {"test_system": "souris", "assay": "Four-plate test, traction and electroshock", "format": "in vivo", "details": "mouse, 30 min after dosing", "description": "Le test est pratiqué sur des lots de 10 souris, 30 min après l'administration de CRL 40827.\nas §2"}, "souris [5]": {"test_system": "souris", "assay": "Spontaneous motility (actimeter)", "format": "in vivo", "details": "mouse, recorded 30 min, 30 min after dosing", "description": "Une demi-heure après avoir reçu le CRL 40827, les souris (6 par dose, 12 témoins) sont placées en actimètre où leur motilité est enregistrée pendant 30 min.\nas §2"}, "souris [6]": {"test_system": "souris", "assay": "Motility reduced by habituation to the enclosure", "format": "in vivo", "details": "mouse; high dose 34 mg/kg", "description": "Après 18 h de séjour dans les actimètres, les souris (6 par dose, 12 témoins) reçoivent le CRL 40827. Elles sont aussitôt replacées dans leurs enceintes respectives et, 30 min plus tard, on enregistre leur motilité pendant 30 min.\nas §2"}, "souris [7]": {"test_system": "souris", "assay": "Motility reduced by hypoxic aggression (acute hypobaric anoxia)", "format": "in vivo", "details": "mouse", "description": "Une demi-heure après avoir reçu le CRL 40827, les souris (10 par dose, 20 témoins) sont soumises à une anoxie hypobare aiguë (dépression de 8 x 10^4 Pa en 90 s, détente de 45 s), puis elles sont placées en actimètre où leur motilité est enregistrée pendant 10 min.\nas §2"}, "souris [8]": {"test_system": "souris", "assay": "Asphyxic anoxia (gallamine triethiodide)", "format": "in vivo", "details": "mouse; highest dose 34 mg/kg, 30 min before gallamine triethiodide i.p.", "description": "Des lots de 10 souris reçoivent le CRL 40827 30 min avant l'administration intrapéritonéale d: 34 mg/kg de triiodoéthy- late de gallamine. A la plus forte dose (34 mg/kg),le CRL 40827 empêche l'apparition des convulsions et de la mort chez 40% des animaux.\nas §2"}, "chien anesthésié": {"test_system": "chien anesthésié", "assay": "Cardiovascular and respiratory action, anaesthetised dog", "format": "in vivo"}, "[9]": {"test_system": "rat éveillé génétiquement hypertendu", "assay": "Cardiovascular action, awake genetically hypertensive rat", "format": "in vivo"}, "[10]": {"test_system": "chien anesthésié au Nembutal", "assay": "Biliary secretion, dog anaesthetised with Nembutal", "format": "in vivo", "details": "normal 1,5 ml", "description": "(§3) Chez le chien anesthésié au Nembutal, le débit biliaire normal recueilli en 30 min est de 1,5 ml; le débit biliaire augmente après injection intraduodénale de CRL 40827 et passe à 1,75 ml pour 2,5 mg/kg de CRL 40827, à 2,25 ml pour 5 mg/kg et à 2,5 ml pour 10 mg/kg. Chez le rat anesthésié au Nembutal, le débit biliaire augmente 1 à 3 h après injection I.V. de CRL 40827 aux doses de 5 mg/kg et 25 mg/kg."}, "[11]": {"test_system": "rat anesthésié au Nembutal", "assay": "Biliary secretion, rat anaesthetised with Nembutal", "format": "in vivo", "details": "1 to 3 h after I.V. injection of 5 mg/kg and 25 mg/kg", "description": "as §3"}, "cobaye": {"test_system": "cobaye", "assay": "Local anaesthetic effect, intradermal injection, pin-prick test", "format": "in vivo", "details": "guinea pig, intradermal 0,2 ml, concentrations 0,5 and 1%", "description": "L'effet anesthésique a été étudié chez le cobaye après injection du CRL 40827 par voie intradermique sous un volume de 0,2 ml aux concentrations de 0,1, 0,5 et 1% (3 cobayes par dose). Chaque animal reçoit le sérum physiologique, la procaine et le CRL 40827 dans des zones délimitées.\nLe test qui consiste en une série de six piqûres de la zone injectée est réalisé 5, 10, 15, 20, 25 et 30 min après l'injection."}, "homme": {"test_system": "homme", "assay": "Clinical use as sedative and antidepressant agents", "format": "in vivo", "details": "clinic"}}, "note": "Where “and” joins values, the source holds several entries; their conditions need not be identical. Equal entries are not always repeated.", "data": [{"smiles": "CC(C)(C)NCC(O)c1ccccc1F", "note": "(stereo not drawn) [CRL 40827, chlorhydratede 1-(2-fluorophényl)-2-tertiobutylamino-1-éthanol]", "values": [{"measurement": "agressivité intergroupes / effet antiagressif", "setting": "souris mâles", "value": "diminue l'agressivité intergroupes"}, {"measurement": "dose maximale non mortelle, DL-0", "setting": "souris [1]", "value": "> 64 mg/kg and < 128 mg/kg"}, {"measurement": "stéréotypies induites par l'apomorphine", "setting": "rat", "value": "laisse inchangées"}, {"measurement": "index de stéréotypies (amphétamine)", "setting": "rats; 4 mg/kg", "value": "diminution isolée"}, {"measurement": "stéréotypies amphétaminiques", "setting": "rats; amphetamine 2 mg/kg i.p. 30 min after the compound", "value": "ne modifie pas"}, {"measurement": "ptôsis réserpinique", "setting": "souris [2]", "value": "sans modifier"}, {"measurement": "hypothermie réserpinique", "setting": "souris [2]; from 0,5 mg/kg, 4 h after reserpine 2,5 mg/kg i.p.", "value": "combat nettement"}, {"measurement": "signes de stimulation cholinergique périphérique (oxotrémorine)", "setting": "souris [3]", "value": "laisse inchangés"}, {"measurement": "tremblements provoqués par l'oxotrémorine", "setting": "souris [3]", "value": "ne modifie pas"}, {"measurement": "action hypothermisante de l'oxotrémorine (antagonisme)", "setting": "souris [3]; 32 mg/kg", "value": "très net"}, {"measurement": "action hypothermisante de l'oxotrémorine", "setting": "souris [3]; from 0,5 mg/kg, 30 min before oxotremorine 0,5 mg/kg i.p.", "value": "antagonise"}, {"measurement": "effets convulsivants de l'électrochoc", "setting": "souris [4]", "value": "à forte dose, s'oppose aux effets convulsivants"}, {"measurement": "incapacité motrice (traction)", "setting": "souris [4]", "value": "ne provoque pas d'incapacité motrice majeure"}, {"measurement": "nombre de passages punis (test des quatre plaques)", "setting": "souris [4]", "value": "n'entraîne pas d'augmentation"}, {"measurement": "activité motrice spontanée", "setting": "souris [5]", "value": "ne modifie pratiquement pas"}, {"measurement": "activité motrice (souris habituées à l'enceinte)", "setting": "souris [6]", "value": "semble provoquer une reprise modérée"}, {"measurement": "récupération motrice après anoxie hypobare", "setting": "souris [7]", "value": "n'entraîne pas d'amélioration"}, {"measurement": "animaux chez lesquels l'apparition des convulsions et de la mort est empêchée", "setting": "souris [8]", "value": 40, "unit": "%"}, {"measurement": "minimal effective dose", "setting": "chien anesthésié; Canis lupus familiaris, dog, read-out: dose from which the effets hypertenseurs de la noradrénaline are diminished", "value": 1, "unit": "mg/kg"}, {"measurement": "pression artérielle et fréquence cardiaque", "setting": "chien anesthésié; anaesthetised dog", "value": "hypotenseur et tachycardisant"}, {"measurement": "dose of maximal effect on the effets hypertenseurs de la noradrénaline", "setting": "chien anesthésié; dog", "value": "~10", "unit": "mg/kg"}, {"measurement": "débit cardiaque", "setting": "chien anesthésié; in vivo", "value": "reste égal"}, {"measurement": "débits sanguins locaux", "setting": "chien anesthésié; in vivo", "value": "n'augmentent pas"}, {"measurement": "respiration", "setting": "chien anesthésié; in vivo", "value": "stimule la respiration"}, {"measurement": "résistances vasculaires des territoires explorés (vertébral, fémoral et rénal) et résistance périphérique totale", "setting": "chien anesthésié; in vivo", "value": "diminue"}, {"measurement": "travail du ventricule gauche et diastole", "setting": "chien anesthésié; in vivo", "value": "diminue le travail du ventricule gauche et raccourcit la diastole"}, {"measurement": "pression artérielle et fréquence cardiaque", "setting": "[9]", "value": "hypotenseur et tachycardisant"}, {"measurement": "débit biliaire recueilli en 30 min", "setting": "[10]; dog, 5 mg/kg intraduodenal", "value": "2,25 ml"}, {"measurement": "débit biliaire recueilli en 30 min", "setting": "[10]; dog, 10 mg/kg intraduodenal", "value": "2,5 ml"}, {"measurement": "débit biliaire recueilli en 30 min", "setting": "[10]; dog, 2,5 mg/kg intraduodenal", "value": "1,75 ml"}, {"measurement": "débit biliaire", "setting": "[11]", "value": "augmente"}, {"measurement": "effet anesthésique local", "setting": "cobaye", "value": "présente un effet anesthésique local"}, {"measurement": "résultats cliniques dans le domaine psychotrope en tant qu'agents sédatifs et antidépresseurs", "setting": "homme", "value": "bons résultats"}]}]}
